According to US9303009B2, “Migrastatins and uses thereof” (Sloan-Kettering Institute for Cancer Research, priority 2011, dated 2016):

Experiments:
[1] = tested on: multiple myeloma (RPMI8226, MM1S, ARP-GL, CAG-GL, OPM2-GL, SKO-007-GL, U266-GL, MM1R cells); assay: toxicity by alamarBlue, multiple myeloma cell lines; format: cell-based, human; conditions: mean of 8 cell lines
Procedure: The toxicity of compounds 42-45 and their IC50 was determined on a panel of human tumor cell lines of multiple myeloma (RPMI8226, MM1S, MM1R, ARP-GL, CAG-GL, OPM2-GL, SKO-007-GL, U266-GL,) and lung cancer (H299-GL, H522-GL, H647-GL, A549-GL, A549-GL, HI993, H1075-GL, HI373, H17030) origin. Tumor cells were dissociated into a single-cell suspension by Trypsin/Collagenase IV treatment and 500 cells per well were aliquoted into each well of 384 microwell plates in 50 μl of RPMI medium with 10% FCS. Compounds 42-45 were dissolved in DMSO and serially diluted in RPMI medium plus 10% FCS and added (1 mM to 1 nM) to quadruplicate wells containing tumor cells. Dilutions of DMSO without compound were used as a control. After 18 hrs or 2 days, the cultures were pulsed with 6 μl of alamarBlue® (Invitrogen Inc. Grand Island, N.Y.) and incubated overnight. The alamarBlue® provides a cell growth indicator based on detection of metabolic activity. The assay system incorporates an oxidation-reduction indicator that both fluoresces and changes color in response to chemical reduction of growth medium resulting from cell growth. The fluorescence intensity was measured using a Synergy H1 Microplate Reader (Biotek Inc, Winooski, VT) and a dose-response curve established for IC50 determination.

MDA231BrM2a cells [2] = assay: cancer cell extravasation through the blood-brain barrier after intracardiac injection; format: in vivo, mice; conditions: 20 mg/kg intraperitoneally at days 0, 3 and 5; sacrificed 7 days after inoculation
Procedure: MDA231BrM2a is a human breast cancer cell line that is metastatic to the brain (Bos et al 2009). These cells stably express a triple fusion protein (thymidinekinase-GFP-luciferase) that allows detection by bioluminesce, and by immunofluorescence with anti-GFP antibodies. Cells (5×10^5 cells) were inoculated into the bloodstream of immunodeficient mice by intracardiac injection. Carboxymethyl-Migraether (cME) was administered (20 mg/kg, intraperitoneally) at days 0, 3 and 5 after injection. Mice were sacrificed 7 days after inoculation. Brains from these mice were serially sectioned (80 μm sections). Anti-GFP immunofluorescence was performed and the number of GFP(+) cells (events) per brain quantified (FIG. 1). The results establish that extravasation of these cancer cells through the blood-brain barrier (BBB) occurs during the first 7 days after inoculation. Therefore, in the experiment of FIG. 1, cME targets cells during the extravasation step.

MDA231BrM2a cells [3] = assay: ex-vivo intra-brain migration assay on brain slices; format: cell-based, human; conditions: 1 μM or 10 μM; 3 days
Source text: After extravasation through the BBB, cancer cells adhere to and migrate on the surface of brain capillaries. Prior to the present disclosure, the permeability of the BBB to cME was unknown. To investigate the ability of cME to inhibit cancer cell migration over capillaries once the cells have infiltrated the brain, we used an ex-vivo intra-brain migration assay. Brain slices from untreated mice were placed in organotypic cultures. Each slice was placed on an inertporous membrane over cell culture medium. MDA231BrM2a cells (3×10^4 cells) were plated on top of the brain slices (FIG. 2, top). After 3 days, the cancer cells had infiltrated the brain tissue mass, migrated towards capillaries (Col. IV in FIG. 2) and migrated on the capillary network of the tissue slice (FIG. 2, bottom). […] In the presence of cME, the cancer cells remained round and on the surface of the brain slice, without migrating towards and over the vascular network (FIG. 2, bottom right).

[4] = tested on: MDA231-LM2 lung metastatic breast cancer cells; assay: trans-well cell migration assay, 3 μm pore Boyden chamber; format: cell-based; conditions: 24 h pre-treatment, 5 h migration
Procedure: MDA231-LM2 lung metastatic breast cancer cells were pre-treated with the indicated concentrations of ME or Carboxymethyl-ME for 24 hours. Following the pre-treatment, migration was determined using a Boyden chamber with 3 μm pore size filters. Cells were allowed to migrate for 5 hours through the chamber (in the presence of ME or Carboxymethyl-ME). Cells that traversed the porous membranes were analyzed and scored under a fluorescence microscope. […] The results are expressed as transmigrated cells per optical field. Data are averages of triplicates ±S.D. (See FIG. 6)

SMILES | Estimated lethal doses (LD50) ([1]; 18 h exposure) [µM] | Estimated lethal doses (LD50) ([1]; 48 h exposure) [µM] | reduction in the number of events (GFP(+) cells) per brain (MDA231BrM2a cells [2]) | migration of cancer cells towards and over the capillary network of the brain slice (MDA231BrM2a cells [3]) | potency relative to ME at inhibiting migration [4]
CO[C@H]1/C=C/CCCCCOC/C(C)=C\[C@@H](C)[C@@H]1O [ME, migrastatin ether] | 794.8 | 881.7 |  |  | 
CO[C@H]1/C=C/CCCCCOC/C(C)=C\[C@@H](C)[C@@H]1OCC(=O)O [CME, Carboxymethyl migraether] | 503.6 | 452.9 | two-fold reduction | strongly inhibited | approximately 20 fold
